Source: patent publication US20240116985A1, “STAPLED PEPTIDES AND METHODS THEREOF” (priority 2020, published 2024)
Like-named read-outs stand apart in the source and are kept apart here.

Target: T1, full-length beta-Catenin (Uniprot ID P35222) (Homo sapiens, UniProt P35222)
T1 construct: 10 nM full-length beta-Catenin (Uniprot ID P35222)
T1 sequence (P35222 1-781): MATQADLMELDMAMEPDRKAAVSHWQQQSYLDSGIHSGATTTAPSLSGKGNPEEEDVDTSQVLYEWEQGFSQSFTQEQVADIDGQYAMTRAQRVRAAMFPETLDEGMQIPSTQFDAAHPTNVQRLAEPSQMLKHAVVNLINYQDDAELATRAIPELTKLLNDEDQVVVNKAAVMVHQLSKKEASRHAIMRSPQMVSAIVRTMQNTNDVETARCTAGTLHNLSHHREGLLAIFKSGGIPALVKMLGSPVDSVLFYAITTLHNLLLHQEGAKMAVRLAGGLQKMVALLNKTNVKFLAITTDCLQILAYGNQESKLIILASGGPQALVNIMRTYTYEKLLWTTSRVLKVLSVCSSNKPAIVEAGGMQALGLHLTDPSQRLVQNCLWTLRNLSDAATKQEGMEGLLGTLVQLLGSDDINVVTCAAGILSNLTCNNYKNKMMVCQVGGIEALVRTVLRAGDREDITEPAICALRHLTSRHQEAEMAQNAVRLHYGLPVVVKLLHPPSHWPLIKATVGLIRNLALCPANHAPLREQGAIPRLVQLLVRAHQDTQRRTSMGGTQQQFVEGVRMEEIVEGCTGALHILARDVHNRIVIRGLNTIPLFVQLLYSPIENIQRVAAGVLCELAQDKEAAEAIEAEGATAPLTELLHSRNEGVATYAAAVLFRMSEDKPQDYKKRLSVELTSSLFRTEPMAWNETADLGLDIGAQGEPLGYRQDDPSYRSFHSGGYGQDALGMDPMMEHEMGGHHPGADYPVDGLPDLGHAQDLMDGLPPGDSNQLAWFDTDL
Assay: Fluorescence polarization IC50 (beta-catenin / 5FAM-TCF4 10-53 competition)
Format: binding

[1] = fluorescence polarization, read-out: beta-Catenin FP IC50
[2] = beta-Catenin FP IC50, fluorescence polarization
[3] = fluorescence polarization, beta-catenin, read-out: FP EC50

SMILES | IC50 [1] | IC50 [3] | IC50 [2]
CC(=O)N1CCC[C@]12CC=CCCCC1(CCCC=CCCCOC(=O)N3CC[C@@](C(=O)N[C@@H](Cc4ccccc4Cl)C(=O)N[C@@H](Cc4csc5ccccc45)C(=O)N[C@H](CO)CC(C)C)(C3)NC(=O)[C@H]([C@@H](C)O)NC(=O)[C@H](Cc3ccccc3)NC(=O)[C@H](C)NC(=O)[C@H](C)NC(=O)[C@H](CN(CC(=O)O)CC(F)(F)F)NC(=O)[C@H](CC(=O)O)NC1=O)NC(=O)[C@H](CC(C)(C)C)NC(=O)[C@H](CC(=O)O)NC2=O (stereo partly drawn) [I-1243, Ac-PL3-Asp-Npg-B5-Asp-TfeGA-Ala-Ala-Phe-Thr-PyrS2-2C1F-BztA-Leuo1] | 82 nM |  | 
CC(=O)N1CCC[C@]12CC=CCCCC1(CCCC=CCCCOC(=O)N3CC[C@@](C(=O)N[C@@H](Cc4ccccc4Cl)C(=O)N[C@@H](Cc4csc5ccccc45)C(=O)N[C@H](CO)CC(C)C)(C3)NC(=O)[C@H](CC(C)C)NC(=O)[C@H](Cc3ccccc3)NC(=O)[C@H](C)NC(=O)[C@H](C)NC(=O)[C@H](CC(=O)O)NC(=O)[C@H](CC(=O)O)NC1=O)NC(=O)[C@H](CC(C)(C)C)NC(=O)[C@H](CC(=O)O)NC2=O (stereo partly drawn) [I-1251, Ac-PL3-Asp-Npg-B5-Asp-Asp-Ala-Ala-Phe-Leu-PyrS2-2C1F-BztA-Leuo1] | 1940 nM |  | 
CCCCCCCC(=O)N1CCC[C@]12CC=CCCCC1(CCCC=CCCCCCC[C@@](C)(C(=O)N[C@@H](Cc3ccccc3Cl)C(=O)N[C@@H](Cc3csc4ccccc34)C(=O)N[C@@H](CCC(N)=O)C(N)=O)NC(=O)[C@H]([C@@H](C)O)NC(=O)[C@H](Cc3ccccc3)NC(=O)[C@H](C)NC(=O)[C@H](C)NC(=O)[C@H](CC(=O)O)NC(=O)[C@H](CC(=O)O)NC1=O)NC(=O)[C@H](CC(C)(C)C)NC(=O)[C@H](CC(=O)O)NC2=O (stereo partly drawn) [I-1254, Oct-PL3-Asp-Npg-B5-Asp-Asp-Ala-Ala-Phe-Thr-S8-2C1F-BztA-Gln-NH2] | 530 nM |  | 
CC(=O)N1CCC[C@]12CC=CCCCC1(CCCC=CCCCOC(=O)N3CC[C@@](C(=O)N[C@@H](Cc4ccsc4)C(=O)N[C@@H](Cc4csc5ccccc45)C(=O)N[C@@H](CC(C)C)C(N)=O)(C3)NC(=O)[C@H](CC(C)C)NC(=O)[C@H](Cc3ccccc3)NC(=O)[C@H](C)NC(=O)[C@H](C)NC(=O)[C@H](CC(=O)O)NC(=O)[C@H](CC(=O)O)NC1=O)NC(=O)[C@H](CC(N)=O)NC(=O)[C@H](CC(=O)O)NC2=O (stereo partly drawn) [I-1413, Ac-PL3-Asp-Asn-B5-Asp-Asp-Ala-Ala-Phe-Leu-PyrS2-3Thi-BztA-Leu-NH2] |  |  | 74 nM
CC(=O)N1CCC[C@]12CC=CCCCC1(CCCC=CCCCOC(=O)N3CC[C@@](C(=O)N[C@@H](Cc4ccsc4)C(=O)N[C@@H](Cc4csc5ccccc45)C(=O)N[C@@H](CC(C)C)C(N)=O)(C3)NC(=O)[C@H](CC(C)C)NC(=O)[C@H](Cc3ccccc3)NC(=O)[C@H](C)NC(=O)[C@H](C)NC(=O)[C@H](CC(=O)O)NC(=O)[C@H](CC(=O)O)NC1=O)NC(=O)[C@H]([C@@H](C)O)NC(=O)[C@H](CC(=O)O)NC2=O (stereo partly drawn) [I-1415, Ac-PL3-Asp-Thr-B5-Asp-Asp-Ala-Ala-Phe-Leu-PyrS2-3Thi-BztA-Leu-NH2] |  |  | 72 nM
CC(=O)N1CCC[C@]12CC=CCCCC1(CCCC=CCCCOC(=O)N3CC[C@@](C(=O)N[C@@H](Cc4ccccc4Cl)C(=O)N[C@@H](Cc4csc5ccccc45)C(=O)N[C@@H](CC(C)C)C(N)=O)(C3)NC(=O)[C@H](CC(C)C)NC(=O)[C@H](Cc3ccccc3)NC(=O)[C@H](C)NC(=O)[C@H](C)NC(=O)[C@H](CC(=O)O)NC(=O)[C@H](CC(=O)O)NC1=O)NC(=O)[C@H](CC(C)C)NC(=O)[C@H](CC(=O)O)NC2=O (stereo partly drawn) [I-1419, Ac-PL3-Asp-Leu-B5-Asp-Asp-Ala-Ala-Phe-Leu-PyrS2-2C1F-BztA-Leu-NH2] | 152 nM | 152 nM | 

Continued, in another order:

IC50 [1] | IC50 [3] | SMILES | IC50 [2]
1470 nM |  | CC(=O)N1CCC[C@]12CC=CCCCC1(CCCC=CCCOC(=O)N3CC[C@@](C(=O)N[C@@H](Cc4ccccc4Cl)C(=O)N[C@@H](Cc4csc5ccccc45)C(=O)N[C@@H](C(N)=O)[C@H](C)O)(C3)NC(=O)[C@H](CC(N)=O)NC(=O)[C@H](Cc3ccccc3)NC(=O)[C@H](C)NC(=O)[C@H](C)NC(=O)[C@H](CC(=O)O)NC(=O)[C@H](CC(=O)O)NC1=O)NC(=O)[C@H](CC(C)(C)C)NC(=O)[C@H](CC(=O)O)NC2=O (stereo partly drawn) [I-1256, Ac-PL3-Asp-Npg-B5-Asp-Asp-Ala-Ala-Phe-Asn-PyrS1-2C1F-BztA-dThr-NH2] | 
11 nM |  | CC(=O)N1CCC[C@]12CC=CCCCC1(CCCC=CCCCOC(=O)N3CC[C@@](C(=O)N[C@@H](Cc4ccsc4)C(=O)N[C@@H](Cc4csc5ccccc45)C(=O)N[C@@H](CCC(N)=O)C(=O)NCc4ccccc4)(C3)NC(=O)[C@H](CC(N)=O)NC(=O)[C@H](Cc3ccccc3)NC(=O)[C@H](C)NC(=O)[C@H](C)NC(=O)[C@H](CC(=O)O)NC(=O)[C@H](CC(=O)O)NC1=O)NC(=O)[C@H](CC(C)(C)C)NC(=O)[C@H](CC(=O)O)NC2=O (stereo partly drawn) [I-1257, Ac-PL3-Asp-Npg-B5-Asp-Asp-Ala-Ala-Phe-Asn-PyrS2-3Thi-BztA-Gln-NHBn] | 
48 nM |  | C[C@@H]1NC(=O)[C@H](C)NC(=O)[C@H](CC(=O)O)NC(=O)[C@H](CC(=O)O)NC(=O)C2(CCCC=CCCCOC(=O)N3CC[C@@](C(=O)N[C@@H](Cc4ccccc4)C(=O)N[C@@H](Cc4csc5ccccc45)C(=O)N[C@@H](CO)C(N)=O)(C3)NC(=O)[C@H](CO)NC(=O)[C@H](Cc3ccccc3)NC1=O)CCCC=CC[C@]1(CCCN1C(=O)CCCN(C)C)C(=O)N[C@@H](CC(=O)O)C(=O)N[C@@H](CC(C)(C)C)C(=O)N2 (stereo partly drawn) [I-1354, NdiMeButC-PL3-Asp-Npg-B5-Asp-Asp-Ala-Ala-Phe-Ser-PyrS2-Phe-BztA-Ser-NH2] | 
213 nM |  | CCCCCCCC(=O)N1CCC[C@]12CC=CCCCC1(CCCC=CCCCOC(=O)N3CC[C@@](C(=O)N[C@@H](Cc4ccccc4)C(=O)N[C@@H](Cc4csc5ccccc45)C(=O)N[C@@H](CO)C(N)=O)(C3)NC(=O)[C@H](CO)NC(=O)[C@H](Cc3ccccc3)NC(=O)[C@H](C)NC(=O)[C@H](C)NC(=O)[C@H](CC(=O)O)NC(=O)[C@H](CC(=O)O)NC1=O)NC(=O)[C@H](CC(C)(C)C)NC(=O)[C@H](CC(=O)O)NC2=O (stereo partly drawn) [I-1355, Oct-PL3-Asp-Npg-B5-Asp-Asp-Ala-Ala-Phe-Ser-PyrS2-Phe-BztA-Ser-NH2] | 
16 nM |  | CC(=O)N1CCC[C@]12CC=CCCCC1(CCCC=CCCCCCC[C@@](C)(C(=O)N[C@@H](Cc3ccsc3)C(=O)N[C@@H](Cc3csc4ccccc34)C(=O)N[C@H](CO)[C@@H](C)O)NC(=O)[C@H](CCO)NC(=O)[C@H](Cc3ccccc3)NC(=O)[C@H](C)NC(=O)[C@H](C)NC(=O)[C@H](CC(=O)O)NC(=O)[C@H](CC(=O)O)NC1=O)NC(=O)[C@H](CC(C)(C)C)NC(=O)[C@H](CC(=O)O)NC2=O (stereo partly drawn) [I-1390, Ac-PL3-Asp-Npg-B5-Asp-Asp-Ala-Ala-Phe-Hse-S8-3Thi-BztA-Thro1] | 
73 nM |  | CC(=O)N1CCC[C@]12CC=CCCCC1(CCCC=CCCCCCC[C@@](C)(C(=O)N[C@@H](Cc3ccccc3C(F)(F)F)C(=O)N[C@@H](Cc3csc4ccccc34)C(=O)N[C@H](CO)[C@@H](C)O)NC(=O)[C@H](CCO)NC(=O)[C@H](Cc3ccccc3)NC(=O)[C@H](C)NC(=O)[C@H](C)NC(=O)[C@H](CC(=O)O)NC(=O)[C@H](CC(=O)O)NC1=O)NC(=O)[C@H](CC(C)(C)C)NC(=O)[C@H](CC(=O)O)NC2=O (stereo partly drawn) [I-1398, Ac-PL3-Asp-Npg-B5-Asp-Asp-Ala-Ala-Phe-Hse-S8-2F3MeF-BztA-Thro1] | 
9 nM |  | CC(=O)N1CCC[C@]12CC=CCCCC1(CCCC=CCCCOC(=O)N3CC[C@@](C(=O)N[C@@H](Cc4ccccc4)C(=O)N[C@@H](Cc4csc5ccccc45)C(=O)N[C@@H](CCC(N)=O)C(N)=O)(C3)NC(=O)[C@H](CC(C)C)NC(=O)[C@H](Cc3ccccc3)NC(=O)[C@H](C)NC(=O)[C@H](C)NC(=O)[C@H](CC(=O)O)NC(=O)[C@H](CC(=O)O)NC1=O)NC(=O)[C@H](CC(C)C)NC(=O)[C@H](CC(=O)O)NC2=O (stereo partly drawn) [I-1402, Ac-PL3-Asp-Leu-B5-Asp-Asp-Ala-Ala-Phe-Leu-PyrS2-Phe-BztA-Gln-NH2] | 
57 nM | 57 nM | CC(=O)N1CCC[C@]12CC=CCCCC1(CCCC=CCCCOC(=O)N3CC[C@@](C(=O)N[C@@H](Cc4ccccc4Cl)C(=O)N[C@@H](Cc4csc5ccccc45)C(=O)N[C@@H](CC(C)C)C(N)=O)(C3)NC(=O)[C@H](CC(C)C)NC(=O)[C@H](Cc3ccccc3)NC(=O)[C@H](C)NC(=O)[C@H](C)NC(=O)[C@H](CC(=O)O)NC(=O)[C@H](CC(=O)O)NC1=O)NC(=O)[C@H](CC(C)(C)C)NC(=O)[C@H](CC(=O)O)NC2=O (stereo partly drawn) [I-1416, Ac-PL3-Asp-Npg-B5-Asp-Asp-Ala-Ala-Phe-Leu-PyrS2-2C1F-BztA-Leu-NH2] | 
198 nM | 198 nM | CC(=O)N1CCC[C@]12CC=CCCCC1(CCCC=CCCCOC(=O)N3CC[C@@](C(=O)N[C@@H](Cc4ccccc4Cl)C(=O)N[C@@H](Cc4csc5ccccc45)C(=O)N[C@@H](CC(C)C)C(N)=O)(C3)NC(=O)[C@H](CC(C)C)NC(=O)[C@H](Cc3ccccc3)NC(=O)[C@H](C)NC(=O)[C@H](C)NC(=O)[C@H](CC(=O)O)NC(=O)[C@H](CC(=O)O)NC1=O)NC(=O)[C@H](CC(C)(C)C)NC(=O)[C@H](CC(=O)O)NC2=O (stereo partly drawn) [I-1417, Ac-PL3-Asp-Npg-B5-Asp-Asp-Ala-Ala-Phe-Leu-PyrS2-2C1F-BztA-Leu-NH2] | 
